In ChEMBL document CHEMBL1697781, “Assessment of the health effects of chemicals in humans: II. Construction of an adverse effects database for QSAR modeling” (Curr Drug Discov Technol, 2004):

Legend:
Conditions in all cases: human; call rule not given here
Hepatotoxicity [1] = assay: FDA HLAED, serum glutamic oxaloacetic transaminase (SGOT) increase
Hepatotoxicity [2] = assay: FDA HLAED, liver enzyme composite activity
Hepatotoxicity [3] = assay: FDA HLAED, alkaline phosphatase increase
Hepatotoxicity [4] = assay: FDA HLAED, gamma-glutamyl transferase (GGT) increase
Hepatotoxicity [5] = assay: FDA HLAED, serum glutamic pyruvic transaminase (SGPT) increase
Throughout, for GGT Increase - Index Value: reference of the scale not given here.

Compound	SGOT Increase - Activity Score (Hepatotoxicity [1])	SGOT Increase - Index Value (Hepatotoxicity [1])	SGOT Increase - Number of Reports (Hepatotoxicity [1])	Composite Activity - Active (Hepatotoxicity [2])	Composite Activity - Marginal (Hepatotoxicity [2])	Composite Activity - Score (Hepatotoxicity [2])	Alkaline Phosphatase Increase - Activity Score (Hepatotoxicity [3])	Alkaline Phosphatase Increase - Index Value (Hepatotoxicity [3])	Alkaline Phosphatase Increase - Number of Reports (Hepatotoxicity [3])	GGT Increase - Activity Score (Hepatotoxicity [4])	GGT Increase - Index Value (Hepatotoxicity [4])	GGT Increase - Number of Reports (Hepatotoxicity [4])	SGPT Increase - Activity Score (Hepatotoxicity [5])	SGPT Increase - Index Value (Hepatotoxicity [5])	SGPT Increase - Number of Reports (Hepatotoxicity [5])	Composite Activity - Active (Hepatotoxicity [2]; Liver)	Composite Activity - Marginal (Hepatotoxicity [2]; Liver)	Composite Activity - Score (Hepatotoxicity [2]; Liver)
NCC(CC(=O)O)c1ccc(Cl)cc1 (stereo not given) [BACLOFEN]	Active	5.4	>= 4	2	0	Active	Active	5.4	>= 4	–	–	–	–	–	–	–	–	–
NC(=O)N1c2ccccc2C=Cc2ccccc21 [CARBAMAZEPINE]	–	–	–	1	1	–	Marginally Active	3.3	>= 4	Active	4.4	>= 4	–	–	–	–	–	–
Clc1cccc(Cl)c1N=C1NCCN1 [CLONIDINE]	–	–	–	–	–	–	Active	11.5	>= 4	Active	9.5	>= 4	Active	7.6	>= 4	2	0	Active
Nc1ccn([C@@H]2O[C@H](CO)[C@@H](O)[C@@H]2O)c(=O)n1 [CYTARABINE]	Active	6.1	>= 4	–	–	–	Active	4.1	>= 4	–	–	–	Active	4.1	>= 4	3	0	Active
CN(C)CCC=C1c2ccccc2COc2ccccc21 [DOXEPIN]	–	–	–	2	0	Active	Active	434.8	< 4	Active	434.8	< 4	–	–	–	–	–	–
CCCCCCCCCCCCCCCCCC(=O)O.CC[C@H]1OC(=O)[C@H](C)[C@@H](O[C@H]2C[C@@](C)(OC)[C@@H](O)[C@H](C)O2)[C@H](C)[C@@H](O[C@@H]2O[C@H](C)C[C@H](N(C)C)[C@H]2OC(C)=O)[C@](C)(O)C[C@@H](C)C(=O)[C@H](C)[C@@H](O)[C@]1(C)O [ERYTHROMYCIN ACISTRATE]	Active	7.9	>= 4	3	0	Active	Active	7.3	>= 4	–	–	–	Active	8.5	>= 4	–	–	–
CCOC(=O)CCC(=O)O[C@H]1[C@H](O[C@@H]2[C@@H](C)[C@H](O[C@H]3C[C@@](C)(OC)[C@@H](O)[C@H](C)O3)[C@@H](C)C(=O)O[C@H](CC)[C@@](C)(O)[C@H](O)[C@@H](C)C(=O)[C@H](C)C[C@@]2(C)O)O[C@H](C)C[C@@H]1N(C)C [ERYTHROMYCIN ETHYLSUCCINATE]	Active	7.9	>= 4	3	0	Active	Active	7.3	>= 4	–	–	–	Active	8.5	>= 4	–	–	–
CCC(=O)O[C@H]1[C@H](O[C@@H]2[C@@H](C)[C@H](O[C@H]3C[C@@](C)(OC)[C@@H](O)[C@H](C)O3)[C@@H](C)C(=O)O[C@H](CC)[C@@](C)(O)[C@H](O)[C@@H](C)C(=O)[C@H](C)C[C@@]2(C)O)O[C@H](C)C[C@@H]1N(C)C [ERYTHROMYCIN PROPIONATE]	Active	7.9	>= 4	3	0	Active	Active	7.3	>= 4	–	–	–	Active	8.5	>= 4	–	–	–
CC[C@H]1OC(=O)[C@H](C)[C@@H](O[C@H]2C[C@@](C)(OC)[C@@H](O)[C@H](C)O2)[C@H](C)[C@@H](O[C@@H]2O[C@H](C)C[C@H](N(C)C)[C@H]2O)[C@](C)(O)C[C@@H](C)C(=O)[C@H](C)[C@@H](O)[C@]1(C)O [ERYTHROMYCIN]	Active	7.9	>= 4	3	0	Active	Active	7.3	>= 4	–	–	–	Active	8.5	>= 4	–	–	–
CC(C)Cc1ccc(C(C)C(=O)O)cc1 (stereo not given) [IBUPROFEN]	Marginally Active	No Shipping Units	>= 4	0	3	–	Marginally Active	No Shipping Units	>= 4	–	–	–	Marginally Active	No Shipping Units	>= 4	–	–	–
COc1ccc2c(c1)c(CC(=O)O)c(C)n2C(=O)c1ccc(Cl)cc1 [INDOMETHACIN]	Marginally Active	3.8	>= 4	0	2	–	Marginally Active	3.1	>= 4	–	–	–	–	–	–	–	–	–
Sc1ncnc2nc[nH]c12 [MERCAPTOPURINE ANHYDROUS]	Active	4.4	>= 4	–	–	–	–	–	–	–	–	–	Active	5.2	>= 4	2	0	Active
CN(C)c1ccc(O)c2c1C[C@H]1C[C@H]3[C@H](N(C)C)C(O)=C(C(N)=O)C(=O)[C@@]3(O)C(O)=C1C2=O [MINOCYCLINE]	Marginally Active	No Shipping Units	>= 4	0	2	–	–	–	–	–	–	–	Marginally Active	No Shipping Units	>= 4	–	–	–
CC(=O)CC(c1ccccc1)c1c(O)c2ccccc2oc1=O (stereo not given) [WARFARIN]	Marginally Active	No Shipping Units	>= 4	0	3	–	Marginally Active	No Shipping Units	>= 4	–	–	–	Marginally Active	No Shipping Units	>= 4	–	–	–
